Laboratory results taken from patent US9687467B2, “Diagnosis and treatment of taxane-resistant cancers” (Children's Medical Center Corporation, priority 2011, dated 2017).

Key:
[1] = test system: A549 cells; assay: cells; type: cell-based; details: Homo sapiens, A549, read-out: median LC50
Protocol: The paclitaxel-resistant cell lines MES-SA^DX5 and A549^TR were transfected with a scrambled non-targeting miRNA (control) and an miR-135a mimic (mimic), respectively. Cells were subsequently treated with 100 nM paclitaxel and cell viability was assessed using the MTT assay (FIGS. 2A, 2B). The percentage of apoptotic cells was assessed by Annexin V-staining and FACS analysis (FIGS. 2C, 2D). Values are presented as percent cell survival in paclitaxel-treated cells relative to untreated cells. *P<0.05, **P<0.001 as determined by Wilcoxon's rank sum test.
FIGS. 4A-4E are a series of micrographs and line graphs showing that miR-135a-mediated APC suppression contributes to paclitaxel resistance. […] Transfected A549 (FIG. 4B) and MES-SA (FIG. 4C) cells were treated with paclitaxel and viability was assessed using the MTT assay. […] (FIG. 4E) Both A549-shCON and -shAPC cells were treated with paclitaxel and cell viability was measured using the MTT assay. […]
(FIG. 7A). The parental A549 cells, a cell line that became refractory during in vivo treatment with paclitaxel (T20.2 round 1) and the same cell line established after yet another round of in vivo paclitaxel treatment (T20.2 reinjection) were treated with paclitaxel and cell viability was assessed using the MTT assay. […] (FIG. 7B) The expression of miR-135a was examined in these cells by qRT-PCR. *P<0.05 as determined by Wilcoxon's rank sum test. […]

[2] = test system: A549 xenografts; assay: A549 xenograft mouse model, paclitaxel treatment; type: in vivo, nude mice
Protocol: (FIG. 5A) A suspension of A549 cells was injected subcutaneously into the flank of a nude mouse. When the average tumor volume was at least 120 mm^3, vehicle or paclitaxel (15 mg/kg) was administered intraperitoneally every other day. Treatment was continued until tumors reached approximately four times their initial volume. Paclitaxel-refractory, as well as vehicle-treated tumors, were digested with collagenase and cultured in vitro (adapted from Norman E et al. Nature Reviews Drug Discovery 2006; 5: 741-754). (FIG. 5B) Tumor growth was determined as the tumor volume on the day of treatment relative to the tumor volume at the start of treatment and presented as a ratio. Each line represents the growth of an individual tumor (T) in an individual mouse (indicated by a number). Groups of mice are separated into control, paclitaxel-responsive and paclitaxel non-responsive (continuous tumor growth in the presence of paclitaxel) groups. […] (FIG. 5C) Vehicle-treated tumors (hatched bars) or paclitaxel-refractory tumors (black bars) were harvested from mice and used to generate two cell lines per tumor. The indicated cell lines were cultured in vitro and cell viability was assessed 72 h after paclitaxel addition using the MTT assay. Bars represent average LC50±s.e.m. from triplicate experiments.
Nude mice were inoculated with A549 cells. At an average tumor volume of ˜120 mm^3, vehicle control and 10 mg/kg (FIG. 10A) or 12.5 mg/kg (FIG. 10B) paclitaxel was administered i.p. every day. Each curve represents the tumor volume on the day of treatment relative to day 0 per mouse.
To further establish the role of miR-135a in paclitaxel response, the A549 xenograft mouse model was adapted from the protocol previously described by Patel et al., 2010. Briefly, nude mice bearing subcutaneous A549 xenografts were injected intraperitoneally with either vehicle or 15 mg/kg paclitaxel until tumors that responded initially began to regrow (FIG. 5A). […] After 120 days of paclitaxel treatment, control and paclitaxel-refractory tumors were harvested. Within two passages in vitro, RNA was harvested for miRNA evaluation and determination of paclitaxel response.
Approximately 4×10^6 human A549 NSCLC cells were resuspended in 50% Matrigel (BD Biosciences, Bedford, Mass.) and injected subcutaneously into the hind flanks of 8-wk old male athymic (nu/nu) nude mice (Taconic Farms, Inc., Hudson, N.Y.). […] Tumor size was determined by digital caliper measurements (length and width in mm), and tumor volume (mm^3) was estimated using the formula (length×width^2)/2. Effects on tumor growth rate were assessed per mouse by determining the tumor volume on the day of treatment relative to the tumor volume on Day 0. […]

[3] = test system: T20.2 xenografts; assay: Retransplantation xenograft, paclitaxel-resistant clone; type: in vivo, nude mice
Protocol: FIGS. 6A-6C are a series of graphs showing data that validate the A549 in vivo paclitaxel resistance model. (FIG. 6A) Tumor cell lines established after an initial round of inoculation and treatment with either vehicle (T28.2) or 15 mg/kg paclitaxel (T20.2) were harvested during log-phase growth and reinjected subcutaneously into the flanks of nude mice. When the average tumor volume was ˜120 mm^3, vehicle (open circles or squares) or 15 mg/kg paclitaxel (closed circles or squares) was administered intraperitoneally every other day. Treatment was continued until tumors reached approximately four times their initial volume. Each curve represents the average tumor growth±s.e.m. for 10 mice per group. […] Each bar represents the average tumor growth±s.e.m. for 10 mice per group. NS: not significant, *P<0.05 as determined by Wilcoxon's rank sum test. (FIG. 6C) Tumors were harvested, cultured in vitro and cell viability was assessed using the MTT assay. Values are presented as percentage of cell survival in paclitaxel-treated cells relative to untreated cells. White bars represent LC50s from tumor cell lines established from T28.2 tumors treated with vehicle. Black bars represent LC50s from cell lines established from T20.2 tumors treated with paclitaxel. Shown are the mean±s.e.m. of two independent experiments, each performed in triplicate. *P<0.05 as determined by Wilcoxon's rank sum test. […]

In the case of `CC(=O)O[C@H]1C(=O)[C@@]2(C)[C@H]([C@H](OC(=O)c3ccccc3)[C@]3(O)C[C@H](OC(=O)[C@H](O)[C@@H](NC(=O)c4ccccc4)c4ccccc4)C(C)=C1C3(C)C)[C@]1(OC(C)=O)CO[C@@H]1C[C@@H]2O` [paclitaxel], the CC50 [1] is reported as 1.14 nM, the “generation of paclitaxel-refractory tumors” value ([2]; 10 mg/kg paclitaxel i.p.) is reported as “did not generate any paclitaxel-refractory tumors” and the “generation of paclitaxel-refractory tumors” value ([2]; 12.5 mg/kg paclitaxel i.p.) is reported as “did not generate any paclitaxel-refractory tumors”. The “mice with prolonged response” value ([2]; 15 mg/kg paclitaxel intraperitoneally) was 7 out of 10, the “mice that became paclitaxel-refractory” value ([2]; 15 mg/kg paclitaxel intraperitoneally, continued treatment) was 3 out of 10 and the “tumor growth after paclitaxel treatment” value ([3]; 15 mg/kg paclitaxel i.p.) was “only a slight delay in tumor growth”. The “reduction of relative tumor burden at the end of the experiment” value ([3]; 15 mg/kg paclitaxel i.p. vs vehicle) was 1.4 fold.
